Values quoted from earlier work as cited in publication PMC3103655 (Journal of natural products, 2011).

Columns and labels:
MOLT-4 leukemia cells = details: read-out: IC50, MOLT-4 leukemia cells
MCF7 breast cancer cells = details: read-out: IC50, MCF7 breast cancer cells
LoVo cells = details: 10 μg/mL
KB cells = details: 10 μg/mL

Substance: dolastatin 10
- IC50 values against cancer cells (cancer cells): pico- to nanomolar

Substance: hantupeptin A
- IC50 (MOLT-4 leukemia cells): 0.032 µM
- IC50 (MCF7 breast cancer cells): 4 µM

Substance: symplostatin 1
- IC50 values against cancer cells (cancer cells): pico- to nanomolar

Substance: trungapeptin A
- cytotoxicity, LoVo cells (LoVo cells): did not display cytotoxicity
- cytotoxicity, KB cells (KB cells): did not display cytotoxicity
